Our source for the inhibition and cell count values is PubChem BioAssay AID1249 (Columbia University Molecular Screening Center, 2008).

One may read the inhibition as the relative decrease from the control value, in per cent.

Activity calls are given as the source filed them. The rule behind the calls is not given here.

A short description of the first assay: cellular cytoskeleton assembly phenotype modulators – imaging, high-content imaging, retest and dose response, confirmation (AID 1249).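 For inhibition: plate controls were untreated cells for no effect and reference compound treated cells for full effect.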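 Note: compound exposure lasted 24 h before fixation.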 As to conditions: cell-based imaging, cytoskeleton assembly phenotype, high content; at 2 µM; stronger effect = higher value.
On to `COC(=O)c1ccccc1NC(=O)Cn1c(-c2nonc2N)nc2ccccc21`, for which the inhibition is 4.2% (inactive).

For `O=C(CN1CCC(c2nc3ccccc3s2)CC1)NCc1cccs1`, the inhibition is 4% (inactive). Same read-out and setting: as for `COc1ccccc1C(=O)Nc1ccc2c(c1)nc(CN1CCN(C(C)=O)CC1)n2C`, the figure is 5.7% (inactive); as for `OC(c1ccccn1)c1c[nH]c2ccccc12` (stereo not given), 14.9% (inactive). On the same count and under the same terms, as for `CC(NC(=O)COC(=O)Cc1ccsc1)C1CC2CCC1C2` (stereo not given), the figure is -7.6% (inactive); as for `Cn1nc(C(=O)NCC2CCCO2)c2ccccc2c1=O` (stereo not given), 0% (inactive); as for `CC1CCCN(c2nc3ccsc3c(=O)s2)C1` (stereo not given), 2.9% (inactive). Still for that read-out and setting: to `COc1ccc(-c2cc(=O)[nH]c(NCc3ccccc3)n2)cc1` belongs -1.7% (inactive).

Regarding `COc1ccc(-c2cc(C(F)(F)F)nc(S(=O)(=O)CCC(=O)N3CCOCC3)n2)cc1`, the inhibition is 0% (inactive).

`O=C(c1ccc2c(c1)ncn2C1CCCCC1)N1CCC2(CC1)OCCO2`: the inhibition was 3% (inactive). On the same count and under the same terms, as for `Cc1ccc(NS(=O)(=O)c2cc(C(=O)NCCSC3CCCCC3)ccc2C)cc1`, the figure is -1.3% (inactive); as for `COc1ccc(CCNc2oc(COc3ccccc3F)nc2C#N)cc1`, 0% (inactive). Same read-out and setting: as for `Nc1nc2c3ccccc3nc(Cc3ccccc3)n2n1`, the figure is 3.4% (inactive); as for `O=C(Nc1cccnc1)c1coc(=O)c2ccccc12`, 8% (inactive); as for `CN1C(=O)N(C)C(=O)C2(Cc3ccccc3N3CCOCC32)C1=O` (stereo not given), -1.2% (inactive).

As for `O=C(O)c1c[nH]c2ccc(S(=O)(=O)N3CCOCC3)cc12`, the inhibition was -7.4% (inactive). On the same count and under the same terms, to `CCC(C)Oc1cccc(OCCCCN2C(=O)NC(C)(C)C2=O)c1` (stereo not given) belongs -13.9% (inactive); to `Oc1ccc(Nc2nc3ccccc3nc2Nc2ccc(O)cc2)cc1`, -1.9% (inactive); to `COc1cc(CNCc2ccco2)ccc1OCc1ccccc1`, -7.5% (inactive). On to `Cc1ccccc1NC1=C/C(=N\S(=O)(=O)c2cccs2)c2ccccc2C1=O`, for which the inhibition is -3.8% (inactive). `CC[C@@H](C)[C@H](NC(=O)OC(C)(C)C)c1nnc(S(=O)(=O)Cc2cc(C)ccc2C)o1`: the inhibition is -2.4% (inactive). Same read-out and setting: as for `Nc1nnc(SCC(=O)NCc2ccc3c(c2)OCO3)s1`, the figure is 3.6% (inactive); as for `O=C(N/N=C/c1ccc[nH]1)c1sc2ccccc2c1Cl`, -8.7% (inactive). As to `O=C(c1ccc2snnc2c1)N1CCSCC1`, the inhibition was -15.8% (inactive). On the same count and under the same terms, to `Cc1c(CCO)c(=O)n(-c2ccccc2)n1S(=O)(=O)c1ccc(Cl)cc1` belongs -11% (inactive); to `O=C1CCCc2c1[nH]c1ccc(Cl)cc21`, -17.2% (inactive). The same measure, in the same setting: to `CCn1c(SCC(=O)Nc2ccc(C(=O)OC)cc2)nnc1-c1cccs1` belongs 0.4% (inactive); to `CCCc1nc(SCC(=O)N2CCc3ccccc32)c2c(C)c(C)sc2n1`, 2.2% (inactive). Still for that read-out and setting: as for `N/C(Cc1cccs1)=N\OC(=O)COc1ccc(Br)cc1Cl`, the figure is -3.7% (inactive). Consider `CCCc1cc(=O)[nH]c(SCC(=O)Nc2nonc2N)n1`, for which the inhibition is 2.7% (inactive). On the same count and under the same terms, as for `Cc1ccc(S(=O)(=O)NC(CC(=O)O)c2ccco2)cc1` (stereo not given), the figure is 8.2% (inactive); as for `COc1ccc(OC)c(C2CC(=O)c3c([nH]c(C(=O)OC(C)C)c3C)C2)c1` (stereo not given), 8.4% (inactive); as for `CCCCCc1ccc(-c2ccc(=O)[nH]n2)cc1`, -6.9% (inactive). In the case of `CSc1nc2sc(-c3ccccc3)cc2c(=O)n1N`, the inhibition was -0.9% (inactive). On the same count and under the same terms, to `N#Cc1nc(-c2ccco2)oc1N1CCOCC1` belongs 3.4% (inactive).

`Oc1ccc(N=Nc2n[nH]c(-c3ccc(Cl)cc3)n2)cc1`: the inhibition is -2.5% (inactive).

For the compound `COc1ccc(CC(=O)Nc2ccc(-c3noc(-c4cccc(OC)c4)n3)cc2)cc1`, the inhibition was 13.6% (inactive). In the case of `CC(=O)c1cccc(S(=O)(=O)N2CCC(n3nnc4cc(F)ccc43)CC2)c1`, the inhibition was 6.4% (inactive). The same measure, in the same setting: as for `Cc1cc(N2CCOCC2)c2c(N)c(C)cc(C)c2n1`, the figure is -8.7% (inactive); as for `O=C1C(=O)c2ccccc2-c2ccccc21`, -13.5% (inactive).

Consider `CC1=C([N+](=O)[O-])C(c2ccccc2)C2=C(N1)c1ccccc1C2=O` (stereo not given), for which the inhibition was 8.7% (inactive). Same read-out and setting: as for `Cn1c(SCc2nc(-c3ccc(Cl)cc3)no2)nnc1-c1cccs1`, the figure is 16.1% (inactive). On the same count and under the same terms, as for `CCOc1ccc(-n2cc(C(=O)NCc3ccco3)c3cc(OC)c(OC)cc3c2=O)cc1`, the figure is -5.9% (inactive). In the case of `COc1ccc(CCN(Cc2cc3cccc(C)c3[nH]c2=O)C(=O)N2CCCC2)cc1OC`, the inhibition was 4.4% (inactive). The same measure, in the same setting: as for `O=C(CN1CCSCC1)N1CCc2[nH]c3ccc(Br)cc3c2C1`, the figure is 5.8% (inactive); as for `CC(=O)c1cccc(Nc2nc(-c3cccc([N+](=O)[O-])c3)cs2)c1`, -7.7% (inactive); as for `O=C(O)C1CC=CCC1C(=O)N1CCCC1` (stereo not given), 5.5% (inactive).

As to `O=C(Nc1ccccc1)c1nnsc1S(=O)c1ccc(Cl)cc1` (stereo not given), the inhibition is -0.9% (inactive). Same read-out and setting: to `CC(=O)c1cccc(NC(=O)NCc2cccnc2)c1` belongs 12.9% (inactive). Same read-out and setting: as for `OCCNCC(O)Cn1ccc2ccccc21` (stereo not given), the figure is -2.9% (inactive); as for `O=S(=O)(Nc1ccc(-n2cccc2)cc1)c1ccccc1`, 0.5% (inactive); as for `Cc1ccc(C(=O)CSc2nnc(COc3ccc(C#N)cc3)n2-c2ccccc2)cc1`, -3% (inactive). Same read-out and setting: as for `O=S(=O)(c1ccc2c(c1)OCCCO2)N1CCNCC1`, the figure is 0.7% (inactive); as for `CN=C(Nc1cc(C)nn1CCC#N)c1ccccc1F`, -24.5% (inactive). As for `C=CCCCOc1ccc(C(=O)O)cc1`, the inhibition was -2.1% (inactive).

For the compound `COc1ccc(NC(=O)/C(Cl)=C(/Cl)S(=O)(=O)Cc2ccc(C)cc2)cn1`, the inhibition was 5.2% (inactive).

For the compound `CCOC(=O)C1=C(CSc2nc3c(cc2C#N)CN(C)CC3)OC(N)=C(C#N)C1c1ccccc1` (stereo not given), the inhibition is 1.4% (inactive). Still for that read-out and setting: to `CCCOC(=O)NC(CC)COC(=O)Nc1cccc(C)c1C` (stereo not given) belongs -5% (inactive); to `COc1ccc(C)cc1S(=O)(=O)Nc1cccc(SC)c1`, 3.7% (inactive); to `Nc1c(C(=O)NC2CCCC2)c2nc3ccccc3nc2n1N`, -22.3% (inactive). The same measure, in the same setting: to `Cc1ccc(OCC(O)CNS(=O)(=O)c2ccccc2C(=O)N2CCCCC2)cc1` (stereo not given) belongs -15.6% (inactive); to `COc1cc2[nH]cc(C(=O)NCCc3ccccc3)c(=O)c2cc1OC`, 1.5% (inactive); to `CCOC(=O)Cc1csc(SCC(=O)/C(C#N)=C(\C)N)n1`, -9.5% (inactive).

As for `O=[N+]([O-])/C=C/c1c(OCc2ccccc2)ccc2ccccc12`, the inhibition was -14.2% (inactive). On the same count and under the same terms, as for `COc1ccc(OC)c2sc(NC(=O)CCS(=O)(=O)c3ccccc3)nc12`, the figure is -5.2% (inactive); as for `Cc1cccnc1N(C(=O)Nc1ccccc1)C1=NCC(C)(C)S1`, -10.2% (inactive). On the same count and under the same terms, to `O=C(CF)NC(Nc1cccc2cccnc12)C(Cl)(Cl)Cl` (stereo not given) belongs -8.8% (inactive). Regarding `CCC1=NC(c2ccccc2Cl)N(O)C1(C)C` (stereo not given), the inhibition was 7.9% (inactive). On to `O=C1c2oc3ccccc3c(=O)c2C(c2cccc(F)c2)N1CCCO` (stereo not given), for which the inhibition was 6.3% (inactive). Same read-out and setting: to `COc1ccc(N=c2oc3ccc(OC)cc3cc2-c2nc3ccccc3[nH]2)cc1` belongs 4.3% (inactive); to `Cc1ccc(-c2nnc3ccc(SCC(=O)Nc4cc(C)on4)nn23)cc1`, -5.1% (inactive); to `Cc1cc(C)cc(NC(=O)CC2NCCNC2=O)c1` (stereo not given), -1.4% (inactive). Take `Cc1nn(S(=O)(=O)c2ccccc2)c(C)c1Sc1ccc([N+](=O)[O-])cc1`: the inhibition was 2.5% (inactive). Still for that read-out and setting: as for `O=C(NCc1ccccc1)NC1(C(=O)N2CCCC2)CCCCC1`, the figure is 5.3% (inactive); as for `Cc1ccc(-c2nc(NC(=O)c3nn(C)cc3[N+](=O)[O-])sc2C)cc1`, 5.1% (inactive); as for `Nc1ccc2c3c(cccc13)CC2`, -5.4% (inactive). Consider `CCCOC(=O)C1C2C=C[C@]3(CN(CCc4ccccc4)C(=O)[C@H]13)O2` (stereo not given in full), for which the inhibition was -9.4% (inactive). Same read-out and setting: to `CCOc1cc(NC(=O)c2ccco2)c(OCC)cc1NC(=O)CCC(=O)NCc1cccnc1` belongs 5.4% (inactive); to `OCCN=C(c1ccccc1)C12CN3CN(CN(C3)C1)C2`, -2.8% (inactive). On the same count and under the same terms, to `CN1C(=O)C(C(=O)NC(C)(C)C)C2c3ccccc3OC13CCCCC23` (stereo not given) belongs 1.7% (inactive); to `COc1cc(CC(=O)Nc2ncc(C)s2)cc(OC)c1OC`, -7.4% (inactive). For the compound `O=C(/C(=C/c1ccc(Cl)cc1)c1nc2ccccc2[nH]1)c1cccs1`, the inhibition was -2.9% (inactive). For `CN=c1sc2ccccc2n1CC(O)COc1ccccc1` (stereo not given), the inhibition was -6.5% (inactive).

For the compound `CC1Oc2ccccc2C=C1/C=C1/SC(N2CCOCC2)=NC1=O` (stereo not given), the inhibition was -1.2% (inactive).

For `COC(=O)CCC(=O)Nc1cccc(Br)c1`, the inhibition is 4.9% (inactive).

In the case of `CCC(=O)Nc1cccc(C(=O)/C=C/c2cc(Br)ccc2OC)c1`, the inhibition is 0% (inactive). The same measure, in the same setting: to `COc1ccccc1OCCn1cc(C(=O)c2ccco2)c2ccccc21` belongs 3.7% (inactive); to `CCOC(=O)Cn1nnnc1CN(CCc1ccccc1)Cc1cc2cc(CC)ccc2[nH]c1=O`, 1.3% (inactive); to `CC1CC(=O)NN=C1c1ccc(NCCO)c([N+](=O)[O-])c1` (stereo not given), -4.6% (inactive).

Still in this assay, the particulars now being: cell-based imaging, cytoskeleton assembly phenotype, high content; cell count; at 10 µM; stronger effect = lower value.
The compound `Cc1cccc2cc(C#N)c(SCC(=O)N3CC(=O)Nc4ccccc43)nc12` registered a cell count of 67.8%.
